How the values were obtained:
TNF-α = TNF-α activity inhibiting assay (LPS-stimulated peripheral blood, ELISA); type: cell-based, human; settings: Homo sapiens, compound 100 nM, diluted peripheral blood of healthy volunteers, LPS 10 ng/mL, 6 hours, read-out: Inhibitory Rate on TNF-α (%)
Experimental: TNF-α Activity Inhibiting Assay
Peripheral blood from healthy volunteers was collected and collected with EDTA anticoagulant tubes. After being diluted 5-fold with 1640 medium (Gibco, catalog number 11875-093, USA), the blood was added to 96-well cell culture plates (Costar, catalog number 3599, USA) and then treated with 10 μL solution of the compound of general formula (I) of the present invention in DMSO (Sigma, catalog number D2650, USA). The final concentration of the compound was 100 nM, and the final concentration of DMSO was 0.2%. After incubation for 60 minutes in an incubator at 37° C. under 5% CO2, 10 μL LPS (Sigma, catalog number L-2880, USA) was added to the reaction system, and the final concentration was 10 ng/mL. After further culturing for 6 hours in the incubator at 37° C. under 5% CO2, the supernatant was collected. The content of TNF-α was determined by ELISA (BD Biosciences, catalog number 555212, USA). Absorbance was detected at OD450 nm with a microplate reader, with OD 650 nm as reference. The control, a solution containing 0.2% DMSO medium, was as 0% inhibition. Raw data and standard curves were recorded. The four-parameter drug inhibition curve was plotted by XL-fit software and the inhibition rate of each compound was calculated, as shown in Table 1.

[1] = system: MM.1S cells (myeloma cells); assay: Cell proliferation assay (MTS), MM.1S myeloma cells; type: cell-based; settings: Homo sapiens, MM1.S, 72 hours, read-out: IC50 values of MMIS Inhibition
Experimental: MM.1S cells (myeloma cells) (ATCC, catalog number CRL-2974) were seeded at 1.8×10^3 per well to a 96-well culture plate containing […] (Gibco, catalog number A10491-01), and were incubated in an incubator for 24 hours at 37° C. under 5% CO2. Compounds were prepared as 20 mM stock solutions with DMSO (Sigma, catalog number D2650), and were diluted with the medium to the desired concentration (the final concentration of DMSO was 0.5%) and then were added to each well, incubated in an incubator for 72 hours at 37° C. under 5% CO2. Then, 20 μL MTS (Promega, catalog number G3581) was added to each well, and further incubated for 1-4 hours in an incubator at 37° C. under 5% CO2. OD490 nm was detected with OD650 nm as reference. The control, a solution containing 0.5% DMSO medium, was as 0% inhibition. GraphPad Prism 5 was used, slope was allowed to change to make the dose-effect curve and IC50 values were calculated, shown in table 2 for details.

SMILES | IC50 [1] [nM] | inhibition at 0.1 µM (TNF-α) [%]
[2H]C1(N2Cc3c(N)cc(F)cc3C2=O)CCC(=O)NC1=O (racemic) [Compound I-01] | – | > 50
COc1cccc(CNc2cccc3c2CN(C2CCC(=O)NC2=O)C3=O)c1F (stereo not shown) [Compound A196, 3-(4-((2-fluoro-3-methoxybenzyl)amino)-1-oxoisoindolin-2-yl)piperidine-2,6-dione] | < 300 | ≥ 50
COc1cccc(CNc2cc(F)cc3c2CN(C2CCC(=O)NC2=O)C3=O)c1F (stereo not shown) [Compound A318, 3-(6-fluoro-4-((2-fluoro-3-methoxybenzyl)amino)-1-oxoisoindolin-2-yl)-piperidine-2,6-dione] | ≥ 300 | < 50
COc1ccc(CNc2cc(F)cc3c2CN(C2CCC(=O)NC2=O)C3=O)c(F)c1 (stereo not shown) [Compound A319, 3-(6-fluoro-4-((2-fluoro-4-methoxybenzyl)amino)-1-oxoisoindolin-2-yl)-piperidine-2,6-dione] | ≥ 300 | < 50
COc1ccc(F)c(CNc2cc(F)cc3c2CN(C2CCC(=O)NC2=O)C3=O)c1 (stereo not shown) [Compound A320, 3-(6-fluoro-4-((2-fluoro-5-methoxybenzyl)amino)-1-oxoisoindolin-2-yl)-piperidine-2,6-dione] | ≥ 300 | < 50
O=C1CCC(N2Cc3c(OCc4ccc(CN5CCOCC5)cc4)cc(F)cc3C2=O)C(=O)N1 (stereo not shown) [Compound A327, 3-(6-fluoro-4-((4-(morpholinomethyl)benzyl)oxy)-1-oxoisoindolin-2-yl)-piperidine-2,6-dione] | < 300 | < 50
COc1ccc(F)c(COc2cccc3c2CN(C2CCC(=O)NC2=O)C3=O)c1 (stereo not shown) [Compound A331, 3-(4-((2-fluoro-5-methoxybenzyl)oxy)-1-oxoisoindolin-2-yl)piperidine-2,6-dione] | < 300 | ≥ 50
O=C1CCC(N2Cc3c(OCc4ccccc4F)cccc3C2=O)C(=O)N1 (stereo not shown) [Compound A336, 3-[4-(2-Fluoro-benzyloxy)-1-oxo-1,3-dihydro-isoindol-2-yl]-piperidine-2,6-dione] | < 300 | –
COc1ccc(F)c(CNc2cccc3c2CN([C@H]2CCC(=O)NC2=O)C3=O)c1 [Compound A340, (S)-3-(4-((2-fluoro-5-methoxybenzyl)amino)-1-oxoisoindolin-2-yl)piperidine-2,6-dione] | < 300 | < 50
COc1ccc(F)c(CNc2cccc3c2CN([C@@H]2CCC(=O)NC2=O)C3=O)c1 [Compound A341, (R)-3-(4-((2-fluoro-5-methoxybenzyl)amino)-1-oxoisoindolin-2-yl)piperidine-2,6-dione] | < 300 | < 50
[2H][C@@]1(N2Cc3c(NCc4cc(OC)ccc4F)cccc3C2=O)CCC(=O)NC1=O [Compound A342, (R)-3-deuterium-3-(4-((2-fluoro-5-methoxybenzyl)amino)-1-oxoisoindolin-2-yl)piperidine-2,6-dione] | ≥ 300 | < 50
[2H][C@]1(N2Cc3c(NCc4cc(OC)ccc4F)cccc3C2=O)CCC(=O)NC1=O [Compound A343, (S)-3-deuterium-3-(4-((2-fluoro-5-methoxybenzyl)amino)-1-oxoisoindolin-2-yl)piperidine-2,6-dione] | < 300 | ≥ 50
O=C1CC[C@H](N2Cc3c(NCc4ccc(CN5CCOCC5)cc4)cccc3C2=O)C(=O)N1 [Compound A346, (S)-3-(4-((4-(morpholinomethyl)benzyl)amino)-1-oxoisoindolin-2-yl) piperidine-2,6-dione] | < 300 | ≥ 50
COc1ccc(CNc2cccc3c2CN(C2CCC(=O)NC2=O)C3=O)cc1OC (stereo not shown) [Compound A349, 3-(4-((3,4-dimethoxybenzyl)amino)-1-oxoisoindolin-2-yl)piperidine-2,6-dione] | ≥ 300 | < 50
Cc1ccc(CNc2cccc3c2CN(C2CCC(=O)NC2=O)C3=O)cc1C (stereo not shown) [Compound A350, 3-(4-((3,4-dimethylbenzyl)amino)-1-oxoisoindolin-2-yl)piperidine-2,6-dione] | < 300 | < 50
Cc1cc(CNc2cccc3c2CN(C2CCC(=O)NC2=O)C3=O)ccc1F (stereo not shown) [Compound A351, 3-(4-((4-fluoro-3-methylbenzyl)amino)-1-oxoisoindolin-2-yl)piperidine-2,6-dione] | < 300 | < 50

More lines, main results first:

IC50 [1] [nM] | SMILES | inhibition at 0.1 µM (TNF-α) [%]
< 300 | Cc1ccc(CNc2cccc3c2CN(C2CCC(=O)NC2=O)C3=O)cc1Cl (stereo not shown) [Compound A352, 3-(4-((3-chloro-4-methylbenzyl)amino)-1-oxoisoindolin-2-yl)piperidine-2,6-dione] | < 50
< 300 | Cc1ccc(CNc2cccc3c2CN(C2CCC(=O)NC2=O)C3=O)cc1F (stereo not shown) [Compound A353, 3-(4-((3-fluoro-4-methylbenzyl)amino)-1-oxoisoindolin-2-yl)piperidine-2,6-dione] | < 50
< 300 | COc1ccc(CNc2cccc3c2CN(C2CCC(=O)NC2=O)C3=O)cc1Cl (stereo not shown) [Compound A354, 3-(4-((3-chloro-4-methoxybenzyl)amino)-1-oxoisoindolin-2-yl)piperidine-2,6-dione] | < 50
≥ 300 | COc1cc(CNc2cccc3c2CN(C2CCC(=O)NC2=O)C3=O)cc(OC)c1 (stereo not shown) [Compound A355, 3-(4-((3,5-dimethoxybenzyl)amino)-1-oxoisoindolin-2-yl)piperidine-2,6-dione] | < 50
< 300 | O=C1CCC(N2Cc3c(NCc4cccc(O)c4F)cccc3C2=O)C(=O)N1 (stereo not shown) [Compound A359, 3-(4-((2-fluoro-3-hydroxybenzyl)amino)-1-oxoisoindolin-2-yl)piperidine-2,6-dione] | ≥ 50
< 300 | N#Cc1cccc(CNc2cccc3c2CN(C2CCC(=O)NC2=O)C3=O)c1F (stereo not shown) [Compound A360, 3-(((2-(2,6-dioxopiperidin-3-yl)-1-oxoisoindolin-4-yl)amino)methyl)-2-fluorobenzonitrile] | < 50
< 300 | NC(=O)c1cccc(CNc2cccc3c2CN(C2CCC(=O)NC2=O)C3=O)c1F (stereo not shown) [Compound A361, 3-(((2-(2,6-Dioxopiperidin-3-yl)-1-oxoisoindolin-4-yl)amino)methyl)-2-fluorobenzamide] | ≥ 50
≥ 300 | CNC(=O)c1cccc(CNc2cccc3c2CN(C2CCC(=O)NC2=O)C3=O)c1F (stereo not shown) [Compound A362, 3-(((2-(2,6-Dioxopiperidin-3-yl)-1-oxoisoindolin-4-yl)amino)methyl)-2-fluoro-N-methylbenzamide] | < 50
≥ 300 | CN(C)CCOc1ccc(F)c(CNc2cccc3c2CN(C2CCC(=O)NC2=O)C3=O)c1 (stereo not shown) [Compound A363, 3-(4-((5-(2-(Dimethylamino)ethoxy)-2-fluorobenzyl)amino)-1-oxoisoindolin-2-yl)piperidine-2,6-dione] | < 50
< 300 | O=C1CCC(N2Cc3c(NCc4cc(O)ccc4F)cccc3C2=O)C(=O)N1 (stereo not shown) [Compound A364, 3-(4-((2-fluoro-5-hydroxybenzyl)amino)-1-oxoisoindolin-2-yl)piperidine-2,6-dione] | < 50
< 300 | Cc1cccc(CNc2cccc3c2CN(C2CCC(=O)NC2=O)C3=O)c1F (stereo not shown) [Compound A367, 3-(4-((2-fluoro-3-methylbenzyl)amino)-1-oxoisoindolin-2-yl)piperidine-2,6-dione] | ≥ 50
< 300 | O=C1CCC(N2Cc3c(NCc4cc(OCCN5CCOCC5)ccc4F)cccc3C2=O)C(=O)N1 (stereo not shown) [Compound A368, 3-(4-((2-fluoro-5-(2-morpholinoethoxy)benzyl)amino)-1-oxoisoindolin-2-yl)piperidine-2,6-dione] | ≥ 50
< 300 | O=C1CCC(N2Cc3c(NCc4cc(OCCCN5CCOCC5)ccc4F)cccc3C2=O)C(=O)N1 (stereo not shown) [Compound A369, 3-(4-((2-fluoro-5-(3-morpholinopropoxy)benzyl)amino)-1-oxoisoindolin-2-yl)piperidine-2,6-dione] | ≥ 50
≥ 300 | COCCOc1ccc(F)c(CNc2cccc3c2CN(C2CCC(=O)NC2=O)C3=O)c1 (stereo not shown) [Compound A370, 3-(4-((2-fluoro-5-(2-methoxyethoxy)benzyl)amino)-1-oxoisoindolin-2-yl)piperidine-2,6-dione] | < 50

From US10017492B2 (KANGPU BIOPHARMACEUTICALS, LTD., priority 2014, dated 2018)
